Read-outs that look alike come from different tables or passages of the source.
Assays:
[1] = system: Key Broadleaf Weed and Crop Species; assay: Post-emergent Test II herbicidal activity (Table 5); assay type: in vivo; details: post-emergence, 336 h, 14 days after application; for pest or weed control at 70 g/ha: application rate 70 g ai/ha; for pest or weed control at 140 g/ha: application rate 140 g ai/ha
Outline: (§1)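 Injury was rated visually 14 d after treatment on a 0–100% scale against untreated controls. Test compounds, formulated with crop oil concentrate and surfactant and serially diluted down to 1/16× of the top rate, were applied by track sprayer at 187 L/ha onto first- to second-true-leaf seedlings.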

[2] = system: Key Grass and Sedge Weeds as well as Grass Crops; assay: Post-emergent Test II herbicidal activity (Table 6); assay type: in vivo; details: post-emergence, 336 h; for pest or weed control at 70 g/ha: 70 g ai/ha; for pest or weed control at 140 g/ha: 140 g ai/ha
Outline: as §1

[3] = ABUTH: velvetleaf (Abutilon theophrasti), read-out: Visual Growth Reduction (%) 14 Days After Application, ABUTH
[4] = AMARE: redroot pigweed (Amaranthus retroflexus), read-out: Visual Growth Reduction (%) 14 Days After Application, AMARE
[5] = BRSNN: oilseed-rape, canola (Brassica napus), read-out: Visual Growth Reduction (%) 14 Days After Application, BRSNN
[6] = CHEAL: lambsquarters (Chenopodium album), read-out: Visual Growth Reduction (%) 14 Days After Application, CHEAL
[7] = EPHHL: wild poinsettia (Euphorbia heterophylla), read-out: Visual Growth Reduction (%) 14 Days After Application, EPHHL
[8] = HELAN: sunflower (Helianthus annuus), read-out: Visual Growth Reduction (%) 14 Days After Application, HELAN
[9] = VIOTR: wild pansy (Viola tricolor), read-out: Visual Growth Reduction (%) 14 Days After Application, VIOTR
[10] = CYPES: yellow nutsedge (Cyperus esculentus), read-out: Visual Growth Reduction (%) 14 Days After Application, CYPES
[11] = DIGSA: crabgrass (Digitaria sanguinalis), read-out: Visual Growth Reduction (%) 14 Days After Application, DIGSA
[12] = ECHCG: barnyardgrass (Echinochloa crus-galli), read-out: Visual Growth Reduction (%) 14 Days After Application, ECHCG
[13] = ORYSA: rice (Oryza sativa), crop, read-out: Visual Growth Reduction (%) 14 Days After Application, ORYSA
[14] = SETFA: giant foxtail (Setaria faberi), read-out: Visual Growth Reduction (%) 14 Days After Application, SETFA
[15] = SORVU: grain sorghum (Sorghum vulgare), read-out: Visual Growth Reduction (%) 14 Days After Application, SORVU
[16] = TRZSS (wheat, Triticum aestivum), crop, read-out: Visual Growth Reduction (%) 14 Days After Application, TRZSS
[17] = ZEAMX: maize, corn (Zea mays), crop, read-out: Visual Growth Reduction (%) 14 Days After Application, ZEAMX

C#Cc1ccc(-c2nc(C(=O)OC)c(Cl)c(N)c2F)cc1 [Compound 7, methyl 4-amino-3-chloro-6-(4-ethynylphenyl)-5-fluoropicolinate]
melting point: 127 to 130 °C
pest or weed control at 70 g/ha [1, 3]: 95 to 100%
pest or weed control at 140 g/ha [1, 3]: 95 to 100%
pest or weed control at 70 g/ha [1, 4]: 95 to 100%
pest or weed control at 140 g/ha [1, 4]: 95 to 100%
pest or weed control at 70 g/ha [1, 5]: 85 to 94%
pest or weed control at 140 g/ha [1, 5]: 85 to 94%
pest or weed control at 70 g/ha [1, 6]: 95 to 100%
pest or weed control at 140 g/ha [1, 6]: 95 to 100%
pest or weed control at 70 g/ha [1, 7]: 85 to 94%
pest or weed control at 140 g/ha [1, 7]: 95 to 100%
pest or weed control at 70 g/ha [1, 8]: 85 to 94%
pest or weed control at 140 g/ha [1, 8]: 95 to 100%
pest or weed control at 70 g/ha [1, 9]: 0 to 29%
pest or weed control at 140 g/ha [1, 9]: 0 to 29%
pest or weed control at 70 g/ha [2, 10]: 75 to 84%
pest or weed control at 140 g/ha [2, 10]: 85 to 94%
pest or weed control at 70 g/ha [2, 11]: 75 to 84%
pest or weed control at 140 g/ha [2, 11]: 85 to 94%
pest or weed control at 70 g/ha [2, 12]: 75 to 84%
pest or weed control at 140 g/ha [2, 12]: 95 to 100%
pest or weed control at 70 g/ha [2, 13]: 0 to 29%
pest or weed control at 140 g/ha [2, 13]: 0 to 29%
pest or weed control at 70 g/ha [2, 14]: 60 to 74%
pest or weed control at 140 g/ha [2, 14]: 95 to 100%
pest or weed control at 70 g/ha [2, 15]: 85 to 94%
pest or weed control at 140 g/ha [2, 15]: 85 to 94%
pest or weed control at 70 g/ha [2, 16]: 30 to 44%
pest or weed control at 140 g/ha [2, 16]: 45 to 59%
pest or weed control at 70 g/ha [2, 17]: 95 to 100%
pest or weed control at 140 g/ha [2, 17]: 95 to 100%

COC(=O)c1nc(-c2ccc(Br)c(F)c2)c(F)c(N)c1Cl [Compound 49]
pest or weed control at 70 g/ha [1, 3]: 95 to 100%
pest or weed control at 140 g/ha [1, 3]: 95 to 100%
pest or weed control at 70 g/ha [1, 4]: 95 to 100%
pest or weed control at 140 g/ha [1, 4]: 95 to 100%
pest or weed control at 70 g/ha [1, 5]: 95 to 100%
pest or weed control at 140 g/ha [1, 5]: 95 to 100%
pest or weed control at 70 g/ha [1, 6]: 95 to 100%
pest or weed control at 140 g/ha [1, 6]: 95 to 100%
pest or weed control at 70 g/ha [1, 8]: 95 to 100%
pest or weed control at 140 g/ha [1, 8]: 95 to 100%
pest or weed control at 70 g/ha [1, 9]: 95 to 100%
pest or weed control at 140 g/ha [1, 9]: 95 to 100%
pest or weed control at 70 g/ha [2, 10]: 95 to 100%
pest or weed control at 140 g/ha [2, 10]: 85 to 94%
pest or weed control at 70 g/ha [2, 11]: 60 to 74%
pest or weed control at 140 g/ha [2, 11]: 75 to 84%
pest or weed control at 70 g/ha [2, 12]: 85 to 94%
pest or weed control at 140 g/ha [2, 12]: 95 to 100%
pest or weed control at 70 g/ha [2, 13]: 0 to 29%
pest or weed control at 140 g/ha [2, 13]: 0 to 29%
pest or weed control at 70 g/ha [2, 14]: 60 to 74%
pest or weed control at 140 g/ha [2, 14]: 95 to 100%
pest or weed control at 70 g/ha [2, 15]: 95 to 100%
pest or weed control at 140 g/ha [2, 15]: 95 to 100%
pest or weed control at 70 g/ha [2, 16]: 45 to 59%
pest or weed control at 140 g/ha [2, 16]: 60 to 74%
pest or weed control at 70 g/ha [2, 17]: 95 to 100%
pest or weed control at 140 g/ha [2, 17]: 95 to 100%

Nc1c(F)c(-c2ccccc2)nc(C(=O)O)c1Cl [Compound 180]
pest or weed control at 70 g/ha [1, 3]: 85 to 94%
pest or weed control at 140 g/ha [1, 3]: 95 to 100%
pest or weed control at 70 g/ha [1, 4]: 45 to 59%
pest or weed control at 140 g/ha [1, 4]: 75 to 84%
pest or weed control at 70 g/ha [1, 5]: 85 to 94%
pest or weed control at 140 g/ha [1, 5]: 95 to 100%
pest or weed control at 70 g/ha [1, 6]: 95 to 100%
pest or weed control at 140 g/ha [1, 6]: 95 to 100%
pest or weed control at 70 g/ha [1, 7]: 60 to 74%
pest or weed control at 140 g/ha [1, 7]: 75 to 84%
pest or weed control at 70 g/ha [1, 8]: 85 to 94%
pest or weed control at 140 g/ha [1, 8]: 85 to 94%
pest or weed control at 70 g/ha [1, 9]: 0 to 29%
pest or weed control at 140 g/ha [1, 9]: 0 to 29%
pest or weed control at 70 g/ha [2, 10]: 30 to 44%
pest or weed control at 140 g/ha [2, 10]: 45 to 59%
pest or weed control at 70 g/ha [2, 11]: 0 to 29%
pest or weed control at 140 g/ha [2, 11]: 0 to 29%
pest or weed control at 70 g/ha [2, 12]: 0 to 29%
pest or weed control at 140 g/ha [2, 12]: 0 to 29%
pest or weed control at 70 g/ha [2, 13]: 0 to 29%
pest or weed control at 140 g/ha [2, 13]: 0 to 29%
pest or weed control at 70 g/ha [2, 14]: 0 to 29%
pest or weed control at 140 g/ha [2, 14]: 0 to 29%
pest or weed control at 70 g/ha [2, 15]: 0 to 29%
pest or weed control at 140 g/ha [2, 15]: 30 to 44%
pest or weed control at 70 g/ha [2, 16]: 0 to 29%
pest or weed control at 140 g/ha [2, 16]: 0 to 29%
pest or weed control at 70 g/ha [2, 17]: 0 to 29%
pest or weed control at 140 g/ha [2, 17]: 0 to 29%
